Test results published in patent US20010000177A1, “Novel class of thiomorpholino substituted thiazoles” (priority 1999, published 2001).
In brackets after ≈: the same amount, converted by molar mass. Marks after values point to notes of the source that are not given here.

Columns and labels:
Assay type in all cases: cell-based
[1] = system: Candida and Cryptococcus strains (organism not given); assay: Broth microdilution antifungal activity, Table II third MIC/MCC column pair; details: for MIC = Minimum inhibitory concentration (50% Inhibition): 48 hrs, 35° C., YNB broth pH 7.0; for MCC = Minimum cytolytic concentration: subculture on SDA plate
Description: (§1) Organisms: Three strains of Candida (Candida parpsilosis, Candida tropicalis, Candida albicans-ATCC 36082) as well as Cryptococcus neoformans were used for the initial testing. Active compounds were then tested against fluconazole resistant Candida albicans, Candida krusei, Torulopsis glabrata, and Cryptococcus neoformans along with Sporothrix shenkii and Aspergillus flavus in the secondary round of testing. All clinical strains used in this study were blood culture isolates from the Clinical Microbiology Laboratory of Harbor-UCLA Medical Center, Torrance, Calif. The organisms were maintained on Sabourahd Dextrose Agar slants at 4° C. For experimentation, singlet suspensions of each organism were prepared by growing the yeast overnight at 27° C. on a rotating drum in yeast-nitrogen base broth (YNB) with amino acids (Difco, Detroit, Mich.), pH 7.0 with 0.05M morpholinepropanesulfonic acid (MOPS). The suspension was then centrifuged and washed twice with 0.85% NaCl. This was followed by sonication of the washed cell suspension for 4s (Branson Sonifier, model 350, Danbury, Conn.). The singlet blastospores were counted in a hemocytometer and adjusted to the desired concentration in 0.85% NaCl.
(§2) Antifungal Activity: The antifungal activity of the compounds and Fluconazole against the Candida and Cryptococcus strains were determined using a modification of a broth microdilution technique. Test compounds were diluted in DMSO to a 1.0 mg/ml ratio then diluted to 64 μg/ml in YNB broth, pH 7.0 with MOPS (Fluconazole was used as the control). This was to provide a working solution of each compound. Using a 96-well plate, wells 1 and 3 through 12 were prepared with YNB broth, […] dilutions of the compound solution were made in wells 2 through 11 (concentration ranges were 64 to 0.125 μg/ml). Well one served as a sterility control and blank for the spectrophotometric assays. Well twelve served as a growth control. The microtiter plates were inoculated with 10 ul in each of well 2 through 11 (final inoculum size was 10^4 organisms/ml). Inoculated plates were incubated for 48 hrs., at 35° C. The MIC values were determined spectrophotometrically by measuring the absorbance at 420 nm (Automatic Microplate Reader, DuPont Instruments, Wilmington, Del.) after agitation of the plates for 2 min with a vortex-mixer (Vorte-Genie 2 Mixer, Scientific Industries, Inc., Bolemia, N.Y.). […] With the turbidity assay this was defined as the lowest drug concentration at which turbidity in the well was <50% of the control (IC50) Minimal Cytolytic Concentrations (MCC) were determined by subculturing all wells from the 96-well plate onto a Sabourahd Dextrose Agar (SDA) plate and incubated for 1 to 2 days at 35° C. and the viability was checked.

[2] = system: Candida and Cryptococcus strains (organism not given); assay: Broth microdilution antifungal activity, Table II first MIC/MCC column pair; details: for MIC = Minimum inhibitory concentration (50% Inhibition) / MCC = Minimum cytolytic concentration: first column pair of Table II; for MIC = Minimum inhibitory concentration (50% Inhibition) / MIC: 48 hrs, 35° C.; for MIC = Minimum inhibitory concentration (50% Inhibition): YNB broth pH 7.0; for MCC = Minimum cytolytic concentration: subculture on SDA plate; for MIC: Candida, 48 h, pH 7, first column pair of Table II, YNB broth pH 7.0, read-out: MIC = Minimum inhibitory concentration (50% Inhibition)
Description: as §1, with “Active compounds were then tested against fluconazole resistant Candida albicans, Candida krusei, Torulopsis glabrata, and Cryptococcus neoformans along with Sporothrix shenkii and Aspergillus flavus in the secondary round of testing.” left out
as §2

[3] = system: Candida and Cryptococcus strains (organism not given); assay: Broth microdilution antifungal activity, Table II second MIC/MCC column pair; details: for MIC = Minimum inhibitory concentration (50% Inhibition) / MCC = Minimum cytolytic concentration: second column pair of Table II; for MIC = Minimum inhibitory concentration (50% Inhibition): YNB broth pH 7.0; for MCC = Minimum cytolytic concentration: subculture on SDA plate
Description: as §1, §2

[4] = system: Candida and Cryptococcus strains (organism not given); assay: Broth microdilution antifungal activity, Table II fourth MIC/MCC column pair; details: for MIC = Minimum inhibitory concentration (50% Inhibition) / MCC = Minimum cytolytic concentration: fourth column pair of Table II; for MIC = Minimum inhibitory concentration (50% Inhibition) / MIC: 48 hrs, 35° C.; for MIC = Minimum inhibitory concentration (50% Inhibition): YNB broth pH 7.0; for MCC = Minimum cytolytic concentration: subculture on SDA plate; for MIC: Candida, 48 h, pH 7, fourth column pair of Table II, YNB broth pH 7.0, read-out: MIC = Minimum inhibitory concentration (50% Inhibition)
Description: as §1, with “Active compounds were then tested against fluconazole resistant Candida albicans, Candida krusei, Torulopsis glabrata, and Cryptococcus neoformans along with Sporothrix shenkii and Aspergillus flavus in the secondary round of testing.” left out
as §2

Row | SMILES | MIC = Minimum inhibitory concentration (50% Inhibition) [1] [µg/mL] | MCC = Minimum cytolytic concentration [1] [µg/mL] | MIC = Minimum inhibitory concentration (50% Inhibition) [2] | MCC = Minimum cytolytic concentration [2] [µg/mL] | MIC = Minimum inhibitory concentration (50% Inhibition) ([3]; 48 hrs, 35° C.) [µg/mL] | MCC = Minimum cytolytic concentration [3] [µg/mL] | MIC = Minimum inhibitory concentration (50% Inhibition) [4] [µg/mL] | MCC = Minimum cytolytic concentration [4] [µg/mL] | MIC [2] [µg/mL] | MIC ([3]; Candida, 48 h, pH 7, second column pair of Table II, 48 hrs, 35° C., YNB broth pH 7.0, read-out: MIC = Minimum inhibitory concentration (50% Inhibition)) [µg/mL] | MIC [4] [µg/mL]
1 | C=CCN(C)Cc1ccc(-c2csc(-c3cccc([N+](=O)[O-])c3)n2)cc1 [Example 1k, 2-(3′-nitrophenyl)-4-[4″-(N-methyl-N-allylaminomethyl)phenyl]thiazole] | 0.25 (≈ 0.684 µM) | 0.25 | 0.5 µg/mL (≈ 1.37 µM) | 1 | 0.25 (≈ 0.684 µM) | 0.5 | 0.25 (≈ 0.684 µM) | 0.5 | – | – | –
2 | C=CCNCc1ccc(-c2csc(-c3ccc(F)cc3)n2)cc1 [Example 1n, 2-(4′-fluorophenyl)-4-[4″-(N-allylaminomethyl)phenyl]thiazole] | 8 (≈ 24.7 µM) | 16 | 8 µg/mL (≈ 24.7 µM) | 16 | 4 (≈ 12.3 µM) | 8 | 8 (≈ 24.7 µM) | 8 | – | – | –
3 | OC(Cn1cncn1)(Cn1cncn1)c1ccc(F)cc1F [Fluconazole, reference compound] | – | >64 | 0.5 µg/mL (≈ 1.63 µM) | >64 | 1.0 (≈ 3.27 µM) | >64 | 0.5 (≈ 1.63 µM) | >64 | 0.25 (≈ 0.816 µM) | 0.5 (≈ 1.63 µM) | 1 (≈ 3.27 µM)
4 | CNCCN(C)Cc1ccc(-c2csc(-c3ccc(Cl)cc3)n2)cc1 [Example 1tt, 2-(4′-chlorophenyl)-4-[4″-(N-methyl-N-(2-N-methylaminoethyl)-amino-methyl)phenyl]thiazole] | 2 (≈ 5.38 µM) | 16 | 4 µg/mL (≈ 10.8 µM) | 16 | 4 (≈ 10.8 µM) | 16 | 2 (≈ 5.38 µM) | 4 | – | – | –
5 | COc1ccc(-c2nnc(-c3ccc(CN(C)C)cc3)o2)cc1 [Example 9j, 2-(4′-methoxyphenyl)-5-[4″-(dimethylaminomethyl)phenyl]-1,3,4-oxadiazole] | 0.5 (≈ 1.62 µM) | 0.5 | 4 µg/mL (≈ 12.9 µM) | 32 | 8 (≈ 25.9 µM) | 8 | 0.25 (≈ 0.808 µM) | 8 | – | – | –
6 | C=CCN(C)Cc1ccc(-c2csc(-c3ccc(OC)c([N+](=O)[O-])c3)n2)cc1 [Example 1kk, 2-(4′-methoxy-3′-nitrophenyl)-4-[4″-(N-methyl-N-allylamino-methyl)phenyl]thiazole] | 1 (≈ 2.53 µM) | 2 | 1 µg/mL (≈ 2.53 µM) | 2 | 0.25 (≈ 0.632 µM) | 1 | 0.5 (≈ 1.26 µM) | 2 | – | – | –
7 | CCCN(C)Cc1ccc(-c2csc(-c3ccc(C(F)(F)F)cc3F)n2)cc1 [Example 6f, 2-(2′-fluoro-4′-trifluoromethylphenyl)-4-[4″-(N-methyl-N-propylamino-methyl)phenyl]thiazole] | 2 (≈ 4.9 µM) | 8 | 8 µg/mL (≈ 19.6 µM) | 16 | 4 (≈ 9.79 µM) | 8 | 4 (≈ 9.79 µM) | 8 | – | – | –
8 | C=CCN(C)Cc1ccc(-c2csc(-c3ccc(F)cc3)n2)cc1 [Example 1, 2-(4′-fluorophenyl)-4-[4″-(N-methyl-N-allylaminomethyl)phenyl]thiazole] | 4 (≈ 11.8 µM) | 16 | 4^c μg/ml | 16 | 4 (≈ 11.8 µM) | 16 | 4 (≈ 11.8 µM) | 16 | – | – | –
9 | CCCN(C)Cc1ccc(-c2csc(-c3ccc(C#N)cc3)n2)cc1 [Example 6e, 2-(4′-cyanophenyl)-4-[4″-(N-methyl-N-propylaminomethyl)phenyl]-thiazole] | 2 (≈ 5.76 µM) | 16 | 4 µg/mL (≈ 11.5 µM) | 4 | 2 (≈ 5.76 µM) | 4 | 0.5 (≈ 1.44 µM) | 1 | – | – | –
10 | C[C@@H]1[C@H](O)[C@@H](C)/C=C/C=C/C=C/C=C/C=C/C=C/C=C/[C@H](O[C@@H]2O[C@H](C)[C@@H](O)[C@H](N)[C@@H]2O)C[C@@H]2O[C@](O)(C[C@@H](O)C[C@@H](O)[C@H](O)CC[C@@H](O)C[C@@H](O)CC(=O)O[C@H]1C)C[C@H](O)[C@H]2C(=O)O [Amp-B, amphotericin B, reference compound] | – | – | 0.25 µg/mL (≈ 0.271 µM) | – | 0.25 (≈ 0.271 µM) | – | <0.03 | – | – | – | –
11 | COc1ccc(-c2nc(-c3ccc(CN(C)CCO)cc3)cs2)cc1[N+](=O)[O-] [Example 1ll, 2-(4′-methoxy-3′-nitrophenyl)-4-[4″-(N-methyl-N-(2-hydroxy-ethyl)amino-methyl)phenyl]thiazole] | 4 (≈ 10 µM) | 4 | 8 µg/mL (≈ 20 µM) | 8 | 2 (≈ 5.01 µM) | 2 | 2 (≈ 5.01 µM) | 8 | – | – | –
12 | CN(C/C=C/c1ccccc1)Cc1cccc2ccccc12 [Naftifine, reference compound] | – | – | – | – | – | – | – | – | 32 (≈ 111 µM) | – | 4 (≈ 13.9 µM)
